Measured values from US11904021B2, “Dual targeting and therapeutic nanoparticle for treating renal fibrosis” (The Chinese University of Hong Kong, priority 2020, dated 2024).
Several values for one entry are separate records, joined by “and”; a condition that tells them apart may be missing. Equal entries are not always repeated. Entries after “also recorded” stand apart in the source; their conditions may differ.

Legend:
[1] = test system: α-smooth muscle actin (a-SMA); experiment: Anti-fibrosis efficacy: IHC of α-SMA in UUO kidney; assay type: in vivo, Balb/c mice; settings: Day 14 post-UUO surgery
Experimental: (§1) Mouse kidney tissue—Two slides from each kidney were selected for each set of stains such that two section-containing slides were at least 200 μm away from each other. IHC staining was performed on paraffin sections using the microwave-based antigen retrieval technique^32. Tissue sections were deparaffinized and rehydrated to water. After placing the slides in citrate buffer (10 mM citric acid, pH 6.0), the slides were heated in the microwave oven for 3 min under high power (˜95-100° C.) and for 20 more min under low power. After cooling the slides in the heated solution for 30 min, they were rinsed in distilled water twice and in PBS for 5 min. Next, the slides were blocked with 2.5% normal horse serum (Vector Laboratories) for 2 h and incubated with 60 μL of primary antibodies [1 μg/mL for type I collagen (1310-01; Southern BioTech), 0.048 μg/mL for α-SMA (ab150301; Abcam)) 0.625 μg/mL for folate receptor (ab67422; Abcam), 1.25 μg/mL for CD3 (ab16669; Abcam), 1.25 μg/mL for Wnt5b (ab93134; Abcam), and pre-diluted β-catenin (ab15180; Abcam)] at 4° C. overnight. […]
(§2) The major measurable outcome was the expression level of collagen I, as quantified by the percentage area of IHC staining in the kidney sections. […]

CD3+ T cells = experiment: Anti-fibrosis efficacy: IHC of CD3+ T cell infiltration in UUO kidney; assay type: in vivo, Balb/c mice; settings: Day 14 post-UUO surgery
Experimental: as §1, §2

[2] = neutral conditions, literature ref 45; cited from earlier work
[3] = test system: type I collagen (gene ID: Col1a1); experiment: Transcriptomic analysis (RNA-seq) of UUO kidneys; assay type: in vivo, Balb/c mice; settings: UUO kidney, 48 h post-injection, individual replicates 1-3
Experimental: UUO mice were i.v. injected with Au3-PEG500-FA NPs (i.e., […]) or free (i.e., 0.12 mg-FA/kg-mouse) on Day 7 after UUO surgery, at the same dosage used for the efficacy studies. An untreated group of UUO mice was also included as control. On Day 9 after UUO surgery (i.e., 48 h post-injection), the mice were sacrificed and the UUO kidneys were harvested. After cutting the UUO kidneys in half using a scalpel, one set of the halved kidneys was fixed in buffered formalin while the other set was snap frozen in liquid nitrogen and stored at −80° C. The formalin-fixed samples were dehydrated as mentioned above and embedded in paraffin blocks to generate tissue sections for validating the RNA-seq data. The frozen samples were sent to Beijing Genomics Institute (BGI) for RNA extraction, RNA library construction, and bioinformatic analysis. A total of 9 samples were sequenced using the BGISEQ platform, with ˜4.57 Gb generated per sample. The average mapping ratio with reference genome is 94.33%. Differential expressed genes (DEGs) detection, gene ontology analysis of DEG, and other analysis based on gene expression were performed by BGI. Further analysis of the DEGs was performed by filtering the list of DEGs with a FPKM threshold of 2 for at least 6 out of the 9 UUO samples tested.
Animals were sacrificed on Day 9. […]

[4] = test system: UUO mice with established renal fibrosis; experiment: Efficacy study in UUO mice: kidney degeneration (gross appearance, histology, kidney weight, blood creatinine); assay type: in vivo, Balb/c mice; settings: treatment from Day 7, sacrifice Day 14 post-UUO surgery
Experimental: Mouse model of renal fibrosis was induced by the UUO surgery as previously described^12,29. Mice were anesthetized by an intraperitoneal injection of ketamine (100 mg/kg; Alfasan International B.V.) and xylazine (10 mg/kg; Alfasan International B.V.). The peritoneum was cut along the midline, and the left ureter was isolated and ligated twice by using a 5-0 suture (NingBo Cheng-He Microsurgical Instruments). The bowel was laid back and the peritoneum was closed with suture. The mice were placed under a heating lamp to maintain body temperature until they recovered from anesthesia. For analgesia, three injections of buprenorphine (Temgesic, 0.05 mg/kg) were given to the mice subcutaneously every 12 h after the surgery. To verify the development of fibrosis, the mice were sacrificed by cervical dislocation with anesthesia, and their kidneys were weighted (see FIG. 4) and processed for histological analysis (see FIGS. 5A-5C).
FA was dissolved in sterile BioPerformance Certified DMSO (Sigma) and formulated in D5W prior to injection. The final concentration of DMSO was less than 1%. Au3-PEG500-FA NPs formulated in D5W was injected i.v. at a dose of 0.12 mg-FA/kg-mouse (or equivalently 2.5 mg-Au/kg-mouse). […]
as §2

UUO mice = experiment: In vivo toxicity test (organ histology, blood biochemistry, hematology); parameters: species or system Balb/c mice; settings: 7 days post-injection, efficacy dose
Experimental: Liver, heart, and spleen samples were fixed in 10% buffered formalin for 48 h and then stored in PBS at 4° C. Paraffin-embedded tissue sections of 4 μm thick were stained with hematoxylin and eosin for the tissue morphology by light microscopy. Blood, collected via an intracardiac puncture, was stored in a plain tube for biochemistry tests and in EDTA-coated tubes (Becton Dickinson) for hematology analysis. The blood samples were kept on ice and later sent to PathLab (Hong Kong) for analysis on the same day.

type I collagen = experiment: Anti-fibrosis efficacy: IHC of type I collagen in UUO kidney; assay type: in vivo, Balb/c mice; settings: for fractional area of type I collagen in UUO kidney: Day 14 post-UUO surgery (7 days post injection)
Experimental: Mouse kidney tissue—Two slides from each kidney were selected for each set of stains such that two section-containing slides were at least 200 μm away from each other. IHC staining was performed on paraffin sections using the microwave-based antigen retrieval technique^32. Tissue sections were deparaffinized and rehydrated to water. After placing the slides in citrate buffer (10 mM citric acid, pH 6.0), the slides were heated in the microwave oven for 3 min under high power (˜95-100° C.) and for 20 more min under low power. After cooling the slides in the heated solution for 30 min, they were rinsed in distilled water twice and in PBS for 5 min. Next, the slides were blocked with 2.5% normal horse serum (Vector Laboratories) for 2 h and incubated with 60 μL of primary antibodies [1 μg/mL for type I collagen (1310-01; Southern BioTech), 0.048 μg/mL for α-SMA (ab150301; Abcam)) 0.625 μg/mL for folate receptor (ab67422; Abcam), 1.25 μg/mL for CD3 (ab16669; Abcam), 1.25 μg/mL for Wnt5b (ab93134; Abcam), and pre-diluted β-catenin (ab15180; Abcam)] at 4° C. overnight. Slides were then washed in PBS and treated with 3% H2O2 (Merck Millipore) for 30 min, rinsed again, and incubated with ˜50 μL of secondary antibodies (ImmPRESS HRP Polymer detection Kit, Vector Laboratories) for 30 min. The sections were developed sequentially by using 3,3′-diaminobenzidine (DAB) enzyme substrate (ImmPACT™ DAB, Vector Laboratories) for 2 min. All slides were counter-stained with Mayer's hematoxylin for 3 min, washed in distilled water, dried in 90% ethanol, and mounted by using xylene-based mounting medium. Bright-field images were acquired using the Nikon Eclipse Ni (DS-Ri2) microscope.
FA was dissolved in sterile BioPerformance Certified DMSO (Sigma) and formulated in D5W prior to injection. The final concentration of DMSO was less than 1%. […]
as §2

Structure (SMILES) | area with positive α-SMA in the UUO kidney [1] [%] | mean population of CD3+ T cells (CD3+ T cells) [cells/frame] | solubility in water [2] | Expression level (FPKM) for type I collagen [3] | gross tissue degeneration of UUO kidney [4] | histological examination of liver, heart, and spleen (UUO mice) | type I collagen protein expression in UUO kidney versus saline group (type I collagen; 48 h post-injection (Day 9)) | fractional area of type I collagen in UUO kidney (type I collagen) [%]
Nc1nc2ncc(CNc3ccc(C(=O)N[C@@H](CCC(=O)O)C(=O)O)cc3)nc2c(=O)[nH]1 [free FA, folic acid] | 10.7 | 13 | poorly soluble in water | 185.4 FPKM and 80.71 FPKM and 18.57 FPKM | rescued the UUO kidney from tissue degeneration; also recorded: did not degenerate | did not observe noticeable toxicity | lower type I collagen protein expression than the saline group | 11.2
C[C@H](CS)C(=O)N1CCC[C@H]1C(=O)O [Captopril] | 12.5 |  |  |  |  | did not observe noticeable toxicity |  | 13.5
